Active and inactive are the calls of the source. The rule behind the calls is not given here.

The subject of experiment [1] is Peritoneal macrophage cell. Description: Induction of Dectin-1 mRNA expression in mouse peritoneal macrophages isolated from PPARgamma -/- mouse treated at 1 uM for 5 hrs by qRT-PCR analysis. Type of experiment: functional, cell-based.
Experiment [2] has as its system Peritoneal macrophage cell. Description: Induction of Dectin-1 mRNA expression in mouse peritoneal macrophages isolated from PPARgamma -/- mouse treated at 5 uM for 5 hrs by qRT-PCR analysis. Format: functional, cell-based.
In experiment [3] the target is T1, Peroxisome proliferator-activated receptor gamma (Mus musculus) (UniProt P37238).
T1 sequence (whole entry): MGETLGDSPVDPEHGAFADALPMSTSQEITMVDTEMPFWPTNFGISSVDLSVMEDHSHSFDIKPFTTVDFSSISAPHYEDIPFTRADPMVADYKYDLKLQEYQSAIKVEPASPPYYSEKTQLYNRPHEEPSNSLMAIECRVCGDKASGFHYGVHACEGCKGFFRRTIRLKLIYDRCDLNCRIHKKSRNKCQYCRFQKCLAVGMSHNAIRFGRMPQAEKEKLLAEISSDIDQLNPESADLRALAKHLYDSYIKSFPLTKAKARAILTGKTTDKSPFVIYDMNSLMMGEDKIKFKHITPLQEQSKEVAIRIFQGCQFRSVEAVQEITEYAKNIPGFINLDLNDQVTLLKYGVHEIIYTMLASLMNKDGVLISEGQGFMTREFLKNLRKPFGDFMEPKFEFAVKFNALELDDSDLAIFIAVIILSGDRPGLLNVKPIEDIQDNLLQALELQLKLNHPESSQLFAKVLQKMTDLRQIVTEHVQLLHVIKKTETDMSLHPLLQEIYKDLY
Description: Activation of PPARgamma in mouse peritoneal macrophages assessed as increase in Dectin-1 mRNA expression treated for 5 hrs by qRT-PCR analysis.

Experiment [4] can be described thus: Cytotoxicity against mouse peritoneal macrophages after 24 hrs. The following applies: Peritoneal macrophage cell. Format: cell-based.
Experiment [5] is described as follows: Cytotoxicity against human A375M cells after 4 days by MTT assay. Type of experiment: functional, cell-based. The note with it: 96 h.
Experiment [6] concerns Peritoneal macrophage cell. Description: Induction of NQO-1 mRNA expression in mouse peritoneal macrophages isolated from PPARgamma -/- mouse treated at 1 uM for 5 hrs by qRT-PCR analysis. Format: functional, cell-based.
In experiment [7] the target is Nuclear factor erythroid 2-related factor 2 (Mus musculus) (UniProt Q60795). Description: Activation of Nrf2 in mouse peritoneal macrophages assessed as increase in HO-1 mRNA expression treated for 5 hrs by qRT-PCR analysis.
Experiment [8] concerns Peritoneal macrophage cell. Description: Induction of CD36 mRNA expression in mouse peritoneal macrophages isolated from PPARgamma -/- mouse treated at 1 uM for 5 hrs by qRT-PCR analysis. Format: functional, cell-based.
Experiment [9] relates to Peritoneal macrophage cell. Kind of experiment: Induction of HO-1 mRNA expression in mouse peritoneal macrophages isolated from PPARgamma -/- mouse treated at 1 uM for 5 hrs by qRT-PCR analysis. Format: functional, cell-based.
Experiment [10] concerns the target Nuclear factor erythroid 2-related factor 2 (Mus musculus) (UniProt Q60795). Description: Activation of Nrf2 in mouse peritoneal macrophages assessed as increase in NQO-1 mRNA expression treated for 5 hrs by qRT-PCR analysis.
Experiment [11] addresses T1, Peroxisome proliferator-activated receptor gamma (Mus musculus). Description: Activation of PPARgamma in mouse peritoneal macrophages assessed as increase in CD36 mRNA expression treated for 5 hrs by qRT-PCR analysis.

Chain of Nuclear factor erythroid 2-related factor 2 (Mus musculus) (Q60795 whole entry, looked up): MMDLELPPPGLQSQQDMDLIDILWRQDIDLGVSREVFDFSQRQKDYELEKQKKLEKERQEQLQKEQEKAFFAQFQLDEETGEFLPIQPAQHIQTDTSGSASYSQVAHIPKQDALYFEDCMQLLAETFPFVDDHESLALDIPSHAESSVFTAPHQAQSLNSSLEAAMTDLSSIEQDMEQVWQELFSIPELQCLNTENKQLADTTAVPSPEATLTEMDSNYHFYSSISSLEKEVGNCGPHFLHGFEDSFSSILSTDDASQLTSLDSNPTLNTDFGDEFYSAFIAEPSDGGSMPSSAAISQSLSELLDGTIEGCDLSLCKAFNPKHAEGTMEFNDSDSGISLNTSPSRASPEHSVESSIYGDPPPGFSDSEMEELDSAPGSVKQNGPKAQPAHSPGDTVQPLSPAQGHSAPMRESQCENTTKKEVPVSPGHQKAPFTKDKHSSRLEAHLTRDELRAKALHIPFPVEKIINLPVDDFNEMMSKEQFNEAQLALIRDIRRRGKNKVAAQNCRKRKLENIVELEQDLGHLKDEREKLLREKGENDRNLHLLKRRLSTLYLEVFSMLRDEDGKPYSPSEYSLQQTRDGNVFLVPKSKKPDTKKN

Take `CN(CCOc1ccc(CC2SC(=O)NC2=O)cc1)c1ccccn1` (stereo unspecified): the result in experiment [1] and in experiment [2] was inactive. In addition, the result in experiment [3] was Active.
With `CCCCCCCCCCCCCC1C=C(C)C(=O)O1` (racemic), the result in experiment [1] and in experiment [2] was inactive. In addition, the IC50 in experiment [4] and in experiment [5] was > 100 µM in each case. The outcome in experiment [3] was Active.
As for `C=C1C(=O)OC(CCc2ccccc2)C1CCc1ccccc1` (stereo unspecified), inhibition in experiment [5] was half-maximal at 2.7 µM (IC50).
Take `C=C1CC(c2ccccc2)OC1=O` (stereo unspecified): the 50% inhibitory concentration (IC50) in [5] stood at 6.7 µM.
As for `C=C1CC(CCCC)OC1=O` (stereo unspecified), the result in [1], in [6], in experiment [8], in experiment [9] and in experiment [2] was inactive. The half-inhibitory concentration (IC50) in experiment [4] is 31.2 µM; in experiment [5] it was 17.3 µM. The outcome in experiment [7], in experiment [10], in experiment [11] and in experiment [3] was Active.
In experiment [5], `C=C1C(=O)OC(CCCCCCCCCCCCC)C1CCc1ccccc1` (mixture of isomers) showed a concentration for half-maximal inhibition (IC50) of 3.3 µM.
On the same count and under the same terms, in the case of `C=C1C(=O)OC(CCc2ccccc2)C1CCCC` (mixture of isomers) it was 5 µM; in that of `C=C1CC(CCc2ccccc2)OC1=O` (stereo unspecified), 8.7 µM; in that of `C=C1C(=O)O[C@@H](CCCCCCCCCCCCC)[C@@H]1C(=O)O` [PROTOLICHESTERINIC ACID], 8.6 µM.
On to `C=C1C(=O)OC(c2ccccc2)C1CCCC` (mixture of isomers), for which the outcome in [1], in experiment [6], in experiment [8], in experiment [9] and in experiment [2] was inactive. For the same compound, the IC50 came to 12.7 µM in [4] and 7.8 µM in experiment [5]. Besides, the result in [7], in experiment [10], in experiment [11] and in experiment [3] was Active.
On to `C=C1C(=O)OC(c2ccccc2)C1c1ccccc1` (mixture of isomers), for which the midpoint of inhibition in experiment [5], the IC50, lay at 6.3 µM.
Regarding `C=C1CC(CCCCCCCCCCCCC)OC1=O` (stereo unspecified), the IC50 in [5] was found to be 3.9 µM.
On the same count and under the same terms, then `C=C1C(=O)OC(CCCCCCCCCCCCC)C1CC` (mixture of isomers), with 4.1 µM; and `C=C1C(=O)OC(c2ccccc2)C1CCc1ccccc1` (mixture of isomers), with 2.8 µM.
Turning to `CCCCCCCCCCCCC[C@H]1OC(=O)C(C)=C1C(=O)O`, the outcome in experiment [1] and in [2] was inactive. Moreover, the IC50 in [4] was > 100 µM; in [5] it was 72 µM. Also, in experiment [3], the result was Active.
Compound `C=C1C(=O)OC(CCCC)C1CCc1ccccc1` (stereo unspecified) returned an IC50 in experiment [5] of 5.5 µM.

Source of the values: ChEMBL document CHEMBL3352159, “Protolichesterinic acid derivatives: α-methylene-γ-lactones as potent dual activators of PPARγ and Nrf2 transcriptional factors” (Bioorg Med Chem Lett, 2014).
